The test system of data set [1] is NIH3T3 fibroblasts. Briefly: Peroxidation of membrane lipids, MDA by TBA method. Conditions: FW = fresh weight. Format: cell-based, mouse. Here is the method: A typical symptom associated with aging is the direct consequence of increased concentrations of reactive oxygen species and lipid peroxidation. […] MDA levels were measured using thiobarbituric acid (TBA method). […] The crude extract was centrifuged at 10,000×g for 5 minutes and 100 μl aliquots of the supernatant were mixed with 100 μl of 0.5% (w/v) TBA containing 0.1% (w/v) trichloroacetic acid. The resulting solution was then incubated for 30 min at 95° C. The samples were rapidly cooled on ice and centrifuged for 5 minutes at 1000×g. […] The newly prepared derivatives of the general formula thus have a protective function against the negative effects of reactive oxygen species that accumulate strongly in the tissues.

For data set [2], the system named is BJ (human foreskin fibroblasts). Briefly: Calcein AM cytotoxicity, BJ. Conditions: read-out: Cytotoxicity IC50, BJ; 72 hours incubation, Calcein AM; highest concentration […].
Excerpt: (§1) One of the parameters used, as the basis for cytotoxicity assays, is the metabolic activity of viable cells. For example, a microtiter assay, which uses the Calcein AM, is now widely used to quantitate cell proliferation and cytotoxicity. […] Because only metabolically active cells cleave Calcein AM, these assays detect viable cells exclusively. The quantity of reduced Calcein AM corresponds to the number of vital cells in the culture.
(§2) Mouse fibroblasts NIH3T3; mouse immortalized bone marrow macrophages B2.4 and B10A.4, and BJ (human foreskin fibroblasts) were used for routine screening of compounds. The cells were maintained in Nunc/Corning 80 cm^2 plastic tissue culture flasks and cultured in cell culture medium (DMEM with 5 g/l glucose, 2 mM glutamine, 100 U/ml penicillin, 100 μg/ml streptomycin, 10% fetal calf serum and sodium bicarbonate).
(§3) The cell suspensions that were prepared and diluted according to the particular cell type and the expected target cell density (2.500-30.000 cells per well based on cell growth characteristics) were added by pipette (80 μl) into 96/well microtiter plates. Inoculates were allowed a pre-incubation period of 24 hours at 37° C. and 5% CO2 for stabilisation. Four-fold dilutions of the intended test concentration were added at time zero in 20 μl aliquots to the microtiter plate wells. Usually, the compound tested was evaluated at six 4-fold dilutions. […] All compound concentrations were examined in duplicates. Incubations of cells with the tested compounds lasted for 72 hours at 37° C., in 5% CO2 atmosphere and 100% humidity. At the end of the incubation period, the cells were assayed by using Calcein AM. Ten microliters of the stock solution were pipetted into each well and incubated for 1 hour. Fluorescence (FD) was measured with the Labsystem FIA Reader Fluoroscan Ascent (UK).
Data set [3] relates to NIH-3T3. Briefly: Calcein AM cytotoxicity, NIH-3T3. The conditions noted are these: read-out: Cytotoxicity IC50, NIH-3T3; 72 hours incubation, Calcein AM; highest concentration […].
Excerpt: as §1, §2, §3
Data set [4] concerns B10A.4. Briefly: Calcein AM cytotoxicity, B10A.4 (first column). Conditions: read-out: Cytotoxicity IC50, B10A.4; 72 hours incubation, Calcein AM; highest concentration […].
Excerpt: as §1, §2, §3
For data set [5], the system named is B10A.4.
Excerpt: as §1, §2, §3
The test system of data set [6] is BJ (human foreskin fibroblasts).
Excerpt: as §1, §2, §3
In data set [7] the test system is NIH-3T3.
Excerpt: as §1, §2, §3
Data set [8] can be described thus: Radical scavenging activity determined by ORAC. The conditions noted are these: relative to trolox; Mean ± SD (n = 3). On the procedure: The ability of compounds to scavenge free radicals in vitro was determined by Oxygen Radical Absorbance Capacity (ORAC) method. In brief, fluorescein (100 μl, […]) and 25 μl of compound solution were added into each working well in a 96-well microplate preincubated at 37° C. Thereafter, 25 μL of 250 mM AAPH was quickly added, microplate was shaken for 5 s and the fluorescence (Ex. 485 nm, Em. 510 nm) was read every 3 min over 90 min by using microplate reader Infinite 200 (TECAN, Switzerland). The net area under the curve was used to express antioxidant activity relative to trolox which was used as a standard.

Structures are written as SMILES. Like-named read-outs stand apart in the source and are kept apart here.

Molecule `CN(C)c1nc(NCc2ccco2)c2ncn(C3CCO3)c2n1` (stereo not shown) [Compound 3] showed an MDA in data set [1] of 12.4 nmol/g FW. Further, the IC50 in data set [2], in data set [3] and in data set [4] was > 167 µM each time.
For `CCN(CC)c1nc(NCc2ccccc2)c2ncn(C3CCO3)c2n1` (stereo not shown) [Compound 9], the MDA in data set [1] came out at 12.2 nmol/g FW. Further, the IC50 in data set [2], in data set [3] and in data set [4] was > 167 µM in each case.
For `CNc1nc(NCc2cc(C)co2)c2ncn(C3CCCO3)c2n1` (stereo not shown) [Compound 39], the MDA in data set [1] stood at 11.4 nmol/g FW. For the same molecule, the IC50 in data set [5], in data set [6] and in data set [7] was > 167 µM each time.
`CCN(CC)c1nc(NCc2ccc(C)o2)c2ncn(C3CCCO3)c2n1` (stereo not shown) [Compound 47]: the MDA in data set [1] was 12.5 nmol/g FW. Besides, the IC50 in data set [5], in data set [6] and in data set [7] was > 167 µM each time.
For `COc1coc(CNc2nc(NCCN(C)C)nc3c2ncn3C2CCCO2)c1` (stereo not shown) [Compound 58], in data set [1], the MDA was 11.4 nmol/g FW. In addition, the IC50 in data set [5], in data set [6] and in data set [7] was > 167 µM each time.
The molecule `CNc1nc(NCc2ccc(OC)o2)c2ncn(C3CCCO3)c2n1` (stereo not shown) [Compound 59] yielded an MDA in data set [1] of 11.5 nmol/g FW. Moreover, the IC50 in data set [5], in data set [6] and in data set [7] was > 167 µM in each case.
In data set [1], `CCNc1nc(NCc2ccc(OC)o2)c2ncn(C3CCCO3)c2n1` (stereo not shown) [Compound 60] registered an MDA of 12.2 nmol/g FW. Besides, the IC50 in data set [5], in data set [6] and in data set [7] was > 167 µM throughout.
For the molecule `CNc1nc(NCc2ccccc2)c2ncn(C3CCCO3)c2n1` (stereo not shown) [Compound 64, 2-(Methylamino)-6-benzylamino-9-(tetrahydrofuran-2-yl)-9H-purine], in data set [8], the “ORAC (compound/trolox)” value came to 0.24 ± 0.001.
Regarding `CN(C)c1nc(NCc2cccc(O)c2)c2ncn(C3CCCO3)c2n1` (stereo not shown) [Compound 71, 2-(Dimethylamino)-6-(3-hydroxybenzylamino)-9-(tetrahydrofuran-2-yl)-9H-purine], the “ORAC (compound/trolox)” value in data set [8] is reported as 5.212 ± 0.238.
For `CCNc1nc(NCc2ccc(O)cc2)c2ncn(C3CCCO3)c2n1` (stereo not shown) [Compound 75], in data set [1], the MDA turned out to be 11.7 nmol/g FW. Also, the IC50 in data set [5], in data set [6] and in data set [7] was > 167 µM throughout.
`CN(C)c1nc(NCc2ccc(O)cc2)c2ncn(C3CCCO3)c2n1` (stereo not shown) [Compound 76, 2-(Dimethylamino)-6-[(4-hydroxybenzyl)amino]-9-(tetrahydrofuran-2-yl)-9H-purine]: in data set [8], the “ORAC (compound/trolox)” value worked out at 0.192 ± 0.005.
Molecule `CCN(CC)c1nc(NCc2cccc(OC)c2)c2ncn(C3CCCO3)c2n1` (stereo not shown) [Compound 82] had an MDA in data set [1] of 10.9 nmol/g FW. Moreover, the IC50 in data set [5], in data set [6] and in data set [7] was > 167 µM in each case.
As to `CCNc1nc(NCc2ccc(OC)cc2)c2ncn(C3CCCO3)c2n1` (stereo not shown) [Compound 85], the MDA in data set [1] is recorded as 11.1 nmol/g FW. Also, the IC50 in data set [5], in data set [6] and in data set [7] was > 167 µM each time.
For the molecule `CCN(CC)c1nc(NCc2ccc(OC)cc2)c2ncn(C3CCCO3)c2n1` (stereo not shown) [Compound 87], the MDA in data set [1] amounted to 10.4 nmol/g FW. For the same molecule, the IC50 in data set [5], in data set [6] and in data set [7] was > 167 µM each time.
As for `COc1cc(CNc2nc(N(C)C)nc3c2ncn3C2CCCO2)ccc1O` (stereo not shown) [Compound 89, 2-(Dimethylamino)-6-[(4-hydroxy-3-methoxybenzyl)amino]-9-(tetrahydrofuran-2-yl)-9H-purine], the “ORAC (compound/trolox)” value in data set [8] was 4.359 ± 0.183.
Regarding `CCN(CC)c1nc(NCC=C(C)C)c2ncn(C3CCCO3)c2n1` (stereo not shown) [Compound 93], the MDA in data set [1] was found to be 10.5 nmol/g FW. Moreover, the IC50 in data set [5], in data set [6] and in data set [7] was > 167 µM throughout.
The molecule `C/C(=C\CNc1nc(NCCN(C)C)nc2c1ncn2C1CCCO1)CO` (stereo not shown) [Compound 99] had an MDA in data set [1] of 10.2 nmol/g FW. Besides, the IC50 in data set [5], in data set [6] and in data set [7] was > 167 µM in each case.
Take `CCNc1nc(NC/C=C(/C)CO)c2ncn(C3CCCO3)c2n1` (stereo not shown) [Compound 101]: the MDA in data set [1] is reported as 10.6 nmol/g FW. Further, the IC50 in data set [5], in data set [6] and in data set [7] was > 167 µM throughout.
As for `CCN(CC)c1nc(NC/C=C(/C)CO)c2ncn(C3CCCO3)c2n1` (stereo not shown) [Compound 103], the MDA in data set [1] is on record as 10.1 nmol/g FW. Also, the IC50 in data set [5], in data set [6] and in data set [7] was > 167 µM in each case.
Take `C/C(=C/CNc1nc(NCCN(C)C)nc2c1ncn2C1CCCO1)CO` (stereo not shown) [Compound 104]: in data set [1], the MDA is 9.6 nmol/g FW. Also, the IC50 in data set [5], in data set [6] and in data set [7] was > 167 µM throughout.
Take `CNc1nc(NCCC(C)CO)c2ncn(C3CCCO3)c2n1` (stereo not shown) [Compound 105]: the MDA in data set [1] came to 10.6 nmol/g FW. Besides, the IC50 in data set [5], in data set [6] and in data set [7] was > 167 µM throughout.
In the case of `CC(CO)CCNc1nc(N(C)C)nc2c1ncn2C1CCCO1` (stereo not shown) [Compound 107], the MDA in data set [1] is 10.3 nmol/g FW. Besides, the IC50 in data set [5], in data set [6] and in data set [7] was > 167 µM in each case.
Consider `CCN(CC)c1nc(NCCC(C)CO)c2ncn(C3CCCO3)c2n1` (stereo not shown) [Compound 108], for which, in data set [1], the MDA was determined as 9.7 nmol/g FW. The IC50 in data set [5], in data set [6] and in data set [7] was > 167 µM in each case.
Take `CNc1nc(NCc2ccco2)c2ncn(C3CCCCO3)c2n1` (stereo not shown) [Compound 110, 2-(Methylamino)-6-furfurylamino-9-(tetrahydro-2H-pyran-2-yl)-9H-purine]: the “ORAC (compound/trolox)” value in data set [8] amounted to 0.205 ± 0.032.
Regarding `CCNc1nc(NCc2occc2C)c2ncn(C3CCCCO3)c2n1` (stereo not shown) [Compound 119], the MDA in data set [1] is 9.7 nmol/g FW. Besides, the IC50 in data set [2], in data set [3] and in data set [4] was > 167 µM in each case.
As for `Cc1coc(CNc2nc(NCCN(C)C)nc3c2ncn3C2CCCCO2)c1` (stereo not shown) [Compound 127], the MDA in data set [1] was determined as 10.4 nmol/g FW. For the same molecule, the IC50 in data set [2], in data set [3] and in data set [4] was > 167 µM in each case.
Regarding `CNc1nc(NCc2ccc(C)o2)c2ncn(C3CCCCO3)c2n1` (stereo not shown) [Compound 128, 2-(Methylamino)-6-[(5-methylfurfuryl)amino]-9-(tetrahydro-2H-pyran-2-yl)-9H-purine], in data set [8], the “ORAC (compound/trolox)” value amounted to 0.461 ± 0.003.
Same read-out and setting: in the case of `CN(C)c1nc(NCc2cccc(O)c2)c2ncn(C3CCCCO3)c2n1` (stereo not shown) [Compound 155, 2-(Dimethylamino)-6-[(3-hydroxybenzyl)amino]-9-(tetrahydro-2H-pyran-2-yl)-9H-purine] it was 2.422 ± 0.107.
The same measure, in the same setting: in the case of `CN(C)c1nc(NCc2ccc(O)cc2)c2ncn(C3CCCCO3)c2n1` (stereo not shown) [Compound 160, 2-(Dimethylamino)-6-[(4-hydroxybenzyl)amino]-9-(tetrahydro-2H-pyran-2-yl)-9H-purine] it was 0.728 ± 0.016.
Take `Oc1ccccc1CNc1ncnc2nc[nH]c12` [ortho-topolin, reference compound]: the IC50 is 108 µM in data set [6] and 94.1 µM in data set [7].
